In US9078868B2, “Therapeutic agent for accelerating recovery of animal under medical treatment” (UNIVERSITY OF MIYAZAKI, priority 2010, dated 2015):
No end group written: not given here. *: point of attachment. Octanoyl = CCCCCCCC(=O)*

Test system: hospitalized animals (canines and felines) with poor physical conditions
Test: Example 3-1: repeated dose of ghrelin (analyzed together with single dose animals), compiled by disease group
Assay type: in vivo
Set-up: key to Degree of anger or anxiety score after administration: 1 = calm/accustomed to staff … 5 = too violent to touch, bites
Details: for Activity (vigor) score after administration: scale 1-7; for Body temperature after administration: before administration 39.8° C.
Procedure: In these Examples, a canine-derived ghrelin (a peptide compound in which a side chain hydroxyl group of the serine residue at the 3rd position from the amino terminus is acylated with an n-octanoyl group in SEQ ID NO: 1) was used as ghrelin. The canine-derived ghrelin was chemically synthesized and then lyophilized, and a canine-derived ghrelin for administration containing 0.1, 0.3, 0.5, or 1 mg per vial of a canine-derived ghrelin was prepared.
To administer ghrelin to animals, the canine-derived ghrelin was dissolved to a concentration of 1 mg/2 mL in physiological saline and intravenously, subcutaneously, or intramuscularly injected after the dose was adjusted depending on the body weight.
The evaluation parameters used were activity (vigor), body temperature, hematology parameters (blood cell test values), serum biochemistry parameters (biochemical test values), the degree of anger or anxiety, and respiratory rate. […] The degree of anger or anxiety of an animal observed visually by an observer were also evaluated using the following criteria: 1. calm and accustomed to a health care professional, 2. able to be touched by but unaccustomed to a health care professional and restless, 3. wandering around or hiding in the kennel with anxiety, 4. able to be barely touched, and 5. too violent to be touched by a health care professional and tends to bite.
A canine-derived ghrelin was repeatedly administered intravenously or subcutaneously to each of the animals with poor physical conditions. The dose of intravenous administration was approximately 5 μg/kg or 10 μg/kg, and the dose of subcutaneous administration was approximately 100 μg/kg. The mean number of doses in repeated administration was approximately four times, and the maximum number of doses was 11 times. The administration period was one to six days.
Evaluation parameters evaluated before and after administration of ghrelin were appetite, quantity of meal, biochemical test values (GOT, GPT, BUN, CRE, CPK, CRP), blood cell test values (white blood cell [WBC], platelet [PLT]), body temperature, activity (vigor), skin, coat, wellness, the degree of anger or anxiety, respiratory rate, and others. These parameters were analyzed together with the results of the animals receiving a single dose (Examples 1 and 2). The analysis results were compiled by disease, such as renal dysfunction, tumor, fracture, and accident (see Table 3-1). Statistical analysis of values before and after administration was performed using a paired t-test.

[1] = infection or parasitism, 15 animals, single or repeated dose
[2] = infection or parasitism, *p < 0.05, **p < 0.01
[3] = inflammatory disease, 13 animals, single or repeated dose
[4] = inflammatory disease, *p < 0.05, **p < 0.01
[5] = renal dysfunction, 10 animals, single or repeated dose
[6] = renal dysfunction, *p < 0.05, **p < 0.01
[7] = tumor, 14 animals, single or repeated dose

GSS (n-octanoyl) FLSPEHQKLQQRKESKKPPAKLQPR (GSS(Octanoyl)FLSPEHQKLQQRKESKKPPAKLQPR; listed as Canis familiaris) [ghrelin, chemically synthesized, lyophilized]
Respiratory rate: animals improved/animals evaluated [1]: 3/3
Vigor: animals improved/animals evaluated [1]: 10/11
WBC: animals improved/animals evaluated [1]: 1/4
BUN: change after vs before administration (t-test) [2]: Decreased*
Respiratory rate: change after vs before administration (t-test) [2]: Improved*
Vigor: change after vs before administration (t-test) [2]: Improved**
BUN value after administration (infections and parasitism, before administration 23.4 mg/dL): 16.4 mg/dL
Respiratory rate after administration (infections and parasitism, before administration 100/min): 70 min⁻¹
Activity (vigor) score after administration (infections and parasitism, example, before administration a score of 1): 3
BUN: animals improved/animals evaluated [3]: 4/4
Body temperature: animals improved/animals evaluated [3]: 5/6
CPK: animals improved/animals evaluated [3]: 1/1
CRE: animals improved/animals evaluated [3]: 0/2
CRP: animals improved/animals evaluated [3]: 1/2
Degree of anger: animals improved/animals evaluated [3]: 2/5
GOT: animals improved/animals evaluated [3]: 3/4
GPT: animals improved/animals evaluated [3]: 4/4
PLT: animals improved/animals evaluated [3]: 2/4
Vigor: animals improved/animals evaluated [3]: 9/9
WBC: animals improved/animals evaluated [3]: 3/4
Respiratory rate: animals improved/animals evaluated (inflammatory disease, 13 animals, single or repeated dose, #respiratory rate was stabilized in 2 of 2 animals): 2/2#
BUN: change after vs before administration (t-test) [4]: Decreased*
Body temperature: change after vs before administration (t-test) [4]: Decreased*
GOT: change after vs before administration (t-test) [4]: Decreased*
GPT: change after vs before administration (t-test) [4]: Decreased*
Vigor: change after vs before administration (t-test) [4]: Improved*
BUN value after administration (inflammatory diseases, before administration 18.6 mg/dL): 10.7 mg/dL
Body temperature after administration (inflammatory diseases): 38.7 °C
GOT value after administration (inflammatory diseases, before administration 149 IU/L): 25.0 IU/L
GPT value after administration (inflammatory diseases, before administration 1000 IU/L): 282 IU/L
Activity (vigor) score after administration (inflammatory diseases, example, before administration a score of 1): 3
BUN: animals improved/animals evaluated [5]: 2/3
Body temperature: animals improved/animals evaluated [5]: 2/2
CRE: animals improved/animals evaluated [5]: 3/3
Degree of anger: animals improved/animals evaluated [5]: 1/3
GOT: animals improved/animals evaluated [5]: 0/1
GPT: animals improved/animals evaluated [5]: 1/1
PLT: animals improved/animals evaluated [5]: 4/5
Respiratory rate: animals improved/animals evaluated [5]: 1/1
Vigor: animals improved/animals evaluated [5]: 5/6
WBC: animals improved/animals evaluated [5]: 5/5
CRE: change after vs before administration (t-test) [6]: Decreased*
PLT: change after vs before administration (t-test) [6]: Increased**
Vigor: change after vs before administration (t-test) [6]: Improved**
WBC: change after vs before administration (t-test) [6]: Decreased*
Serum creatinine (CRE) value after administration (renal dysfunctions, before administration 3.2 mg/dL): 1.3 mg/dL
White blood cell (WBC) count after administration (renal dysfunctions, before administration 324×10^2/μL): 13900 µL⁻¹
Activity (vigor) score after administration (renal dysfunctions, example, before administration a score of 2): 3
BUN: animals improved/animals evaluated [7]: 2/4
Body temperature: animals improved/animals evaluated [7]: 6/6
CRE: animals improved/animals evaluated [7]: 2/4
CRP: animals improved/animals evaluated [7]: 2/2
Degree of anger: animals improved/animals evaluated [7]: 4/6
GOT: animals improved/animals evaluated [7]: 3/5
GPT: animals improved/animals evaluated [7]: 4/6
PLT: animals improved/animals evaluated [7]: 3/6
Respiratory rate: animals improved/animals evaluated [7]: 1/1
Vigor: animals improved/animals evaluated [7]: 7/8
WBC: animals improved/animals evaluated [7]: 3/6
Body temperature: change after vs before administration (t-test) (tumor, *p < 0.05, **p < 0.01): Decreased*
Degree of anger: change after vs before administration (t-test) (tumor, *p < 0.05, **p < 0.01): Improved*
Vigor: change after vs before administration (t-test) (tumor, *p < 0.05, **p < 0.01): Improved*
Body temperature after administration (tumors): 38.6 °C
Activity (vigor) score after administration (tumors, example, before administration a score of 3): 6
Degree of anger or anxiety score after administration (tumors, example, before administration a score of 5, scale 1-5): 2
